Test results reported in BigSolDB 2.1.

COC(=O)c1c(Cl)nn(C)c1S(=O)(=O)NC(=O)Nc1nc(OC)cc(OC)n1
solubility (mole fraction)
Conditions | 278.15 K | 283.15 K | 288.15 K | 293.15 K | 298.15 K | 303.15 K | 308.15 K | 313.15 K | 318.15 K | 323.15 K
in DMF | 0.000768 | 0.000905 | 0.00105 | 0.00123 | 0.00142 | 0.0016 | 0.00182 | 0.00204 | 0.00227 | 0.00254
in ethanol | 3.56e-05 | 4.18e-05 | 4.87e-05 | 5.64e-05 | 6.48e-05 | 7.29e-05 | 8.22e-05 | 9.25e-05 | 0.000103 | 0.000116
in isopropanol | 3.3e-06 | 3.57e-06 | 3.85e-06 | 4.17e-06 | 4.51e-06 | 4.93e-06 | 5.33e-06 | 5.71e-06 | 6.19e-06 | 6.64e-06
in water | 3.24e-07 | 3.38e-07 | 3.51e-07 | 3.66e-07 | 3.81e-07 | 3.96e-07 | 4.11e-07 | 4.26e-07 | 4.44e-07 | 4.62e-07
